US20230172951A1, “METHODS OF USING BILE ACIDS TO TREAT VIRAL INFECTIONS” (HOFFMAN TECHNOLOGIES LLC, priority 2020, published 2023)

Columns and labels:
[1] = system: SARS-CoV-2 (USA-WA1/2020 strain); experiment: SARS-CoV-2 neutralization assay in Vero E6 cells, cytopathic effect (CPE) read-out; assay type: cell-based; details: for Inhibition of SARS-CoV-2 infection of Vero cells / Day 2 CPE / Day 4 CPE: 1.25 mg/mL; for Inhibition of SARS-CoV-2 infection of Vero cells: dosed simultaneously with viral addition to cells; for EC50 (inhibition of SARS-CoV-2 CPE): Vero E6 cells, calculated by the Quest Graph EC50 Calculator (AAT Bioquest); for Day 2 CPE / Day 4 CPE: five replicate wells; for Day 2 CPE: Day 2 post-infection; for Day 4 CPE: Day 4 post-infection
Vero E6 cells = experiment: Cytotoxicity / cell growth observed in Vero E6 cells during the neutralization assay; details: for Cell growth: 1.25 mg/mL, also seen in corresponding DMSO controls (1.25%), attributed to DMSO
[2] = Solubility on dilution of DMSO stock in DMEM/F12; assay type: physicochemical
Protocol: The Vero E6 cells were plated on 96-well plates the day before the assay and were allowed to grow to ˜60% confluence. All three drugs were reconstituted with DMSO to a concentration of 100 mg/mL. That was further diluted in DMEM/F12 to 5 mg/mL. […] A 1:2 serial dilution series was performed to examine final concentrations of 1.25, 0.625, 0.31, 0.156, 0.078, 0.039, and 0.02 mg/mL. DMSO controls were used to account for DMSO concentrations at 1.25, 0.625, 0.31, 0.156, 0.078, 0.039, and 0.02%. Dilutions were pre-incubated with virus for 60 minutes prior to addition to cells. This was to allow drug to interact with virus prior to virus infection. Additionally, drug and virus were added to Vero cells simultaneously. 45 minutes after virus addition, DMEM/F12+FBS was added to feed the cells. The assay was executed in five replicates for each condition. Test wells received approximately 100 TCID50/well of SARS-CoV-2. Growth of the Vero E6 cells was observed and monitored for cytopathic effects (CPE) associated with successful virus replication. All wells were examined on Day 2 and Day 4 post-infection.

SARS-CoV-2 / COVID-19 = assay type: in vivo; details: 500 mg capsule, twice per day
COVID-19 = experiment: Subject presenting with COVID-19 symptoms taking TUDCA capsules (Example 3); assay type: in vivo; details: 500 mg capsule, twice per day; after several days
Protocol: A subject presenting with COVID-19 symptoms was instructed to administer one gelatin capsule of TUDCA (500 mg, powder in capsule), twice per day.

[3] = pre-incubation with virus for 60 minutes
[4] = simultaneous addition of drug and virus

SMILES | Inhibition of SARS-CoV-2 infection of Vero cells [1] | EC50 (inhibition of SARS-CoV-2 CPE) [1] [mg/L] | Day 2 CPE [1, 3] | Day 2 CPE [1, 4] | Day 4 CPE [1, 4] | Cell growth (Vero E6 cells) | Solubility in DMEM/F12 ([2]; 100 mg/mL DMSO stock diluted in DMEM/F12 to 5 mg/mL) | Solubility in DMEM/F12 ([2]; next 1:2 dilution after 5 mg/mL) | Health outcome of member who tested positive for SARS-CoV-2 with COVID-19 symptoms (SARS-CoV-2 / COVID-19; oral, one member) | COVID-19 symptoms in exposed members (prophylaxis) (SARS-CoV-2 / COVID-19; twelve members, repeated exposure to COVID-19 patients over at least 3 months) | Health outcome of subject with COVID-19 symptoms (COVID-19) | Cytotoxicity in wells (Vero E6 cells; 1.25 and 0.625 mg/mL final concentrations)
C[C@H](CCC(=O)NCCS(=O)(=O)[O-])[C@H]1CC[C@H]2[C@@H]3[C@@H](O)C[C@@H]4C[C@H](O)CC[C@]4(C)[C@H]3CC[C@]12C.[Na+] [Sodium TUDCA] | inhibit SARS-CoV-2 infection of Vero cells | 980 | no CPE | no CPE | no CPE | Slowed cell growth | – | – | – | – | – | –
CC(CCC(=O)NCCS(=O)(=O)O)C1CCC2C3C(O)CC4CC(O)CCC4(C)C3CCC12C (stereo not drawn) [TUDCA acid, tauroursodeoxycholic acid] | inhibit SARS-CoV-2 infection of Vero cells | 980 | no CPE | no CPE | no CPE | Slowed cell growth | – | – | – | – | – | –
CC(CCC(=O)NCCS(=O)(=O)O)C1CCC2C3C(O)CC4CC(O)CCC4(C)C3CCC12C (stereo not drawn) [TUDCA, tauroursodeoxycholic acid] | – | – | – | – | – | – | came out of solution | soluble | health returned to normal | None of the other twelve members have presented with COVID-19 symptoms | health returned to normal | Cytotoxicity was seen
